From patent EP0166609A2, “Aryl derivatives of heterobicyclic compounds” (THE WELLCOME FOUNDATION LIMITED, priority 1984, dated 1986) come the findings set out here.

The structures appear in SMILES notation.

The experiment has as its system anaesthetised, open-chest beagle dogs. Put plainly: in vivo inotropic and vasodilatory activity, bolus intravenous injection. The conditions noted are these: for ED30 / ED50: Canis lupus familiaris, bolus intravenous injection; for ED30: read-out: ED30D.B.P. (effective intravenous dose to produce a 30% decrease in diastolic blood pressure); for ED50: read-out: ED50L.V. dP/dt (effective intravenous dose of compound to produce a 50% increase in L.V. dP/dt); for Selectivity ED50L.V. dP/dt / ED30D.B.P. / Tr (duration of inotropic response): intravenous; for Tr (duration of inotropic response): time in which a 50% increase in L.V. dp/dt would return to pre-dose levels. As for the experimental part: Determination of in vivo Inotropic and Vasodilatory Activity Compounds according to the present invention were tested in vivo in comparison with the compound 2-(2-methoxy-4-methylsulphinylphenyl)imidazo[1,2-a]pyrazine (hereinafter referred to as compound 'X' disclosed in UK patent specification No. 2 132 203 A. The compounds were tested in anaesthetised, open-chest beagle dogs by bolus intravenous injection to produce a dose-related positive inotropic stimulation (as measured by the increase in the maximum rate of change of the left ventricular pressure -,L.V. dp/dt) over the dose range of 0.003 - 3.0 mg/kg. This was accompanied by a dose-related increase in aortic blood flow, and a fall in systemic blood pressure (see Table below). In these preparations, the duration of inotropic response was estimated by measuring the time in which a 50% increase in L.V. dp/dt would return to pre-dose levels. The duration is shown in the table below and for some of the compounds is given as a range. [table]

Consider `COc1cc(C(N)=O)ccc1-c1cn2ccncc2n1` [Example 1, 2-(2-Methoxy-4-carbamoylphenyl)-imidazo[1,2-a]pyrazine], for which the ED30 amounted to 0.05 mg/kg, the ED50 came to 0.02 mg/kg, the “Selectivity ED50L.V. dP/dt / ED30D.B.P.” value is reported as 0.4 and the “Tr (duration of inotropic response)” value was >30 min.

With `COc1cc([S+](C)[O-])ccc1-c1cn2ccnc(OC)c2n1` (stereo not drawn) [Example 3, 8-methoxy-2-(2-methoxy-4-methylsulphinylphenyl)imidazo[1,2-a]pyrazine], the ED30 stood at 1.17 mg/kg, the ED50 was determined as 0.91 mg/kg, the “Selectivity ED50L.V. dP/dt / ED30D.B.P.” value turned out to be 0.08 and the “Tr (duration of inotropic response)” value came out at 60 min.

Regarding `COc1cc(OS(C)(=O)=O)ccc1-c1cn2ccnc(OC)c2n1` [Example 4, 8-methoxy-2-(2-methoxy-4-methylsulphonyloxyphenyl)imidazo[1,2-a]pyrazine], the ED30 is 0.06 mg/kg, the ED50 stood at 0.07 mg/kg, the “Selectivity ED50L.V. dP/dt / ED30D.B.P.” value was found to be 1.22 and the “Tr (duration of inotropic response)” value was 45 to 60 min.

On to `COc1cc(C(N)=O)ccc1-c1cn2ccnc(OC)c2n1.Cl` [Example 5, 2-(2-methoxy-4-carbamoylphenyl)-8-methoxy-imidazo[1,2-a]pyrazine hydrochloride], for which the ED30 was determined as 0.15 mg/kg, the ED50 was determined as 0.06 mg/kg, the “Selectivity ED50L.V. dP/dt / ED30D.B.P.” value came to 0.39 and the “Tr (duration of inotropic response)” value is 30 to 45 min.

Regarding `COc1cc(C(C)=O)ccc1-c1cn2ccncc2n1` [Example 7, 2-(2-methoxy-4-acetylphenyl)imidazo[1,2-a]pyrazine], the ED30 is 0.1 mg/kg, the ED50 was found to be 0.03 mg/kg, the “Selectivity ED50L.V. dP/dt / ED30D.B.P.” value came to 0.30 and the “Tr (duration of inotropic response)” value stood at 10 min.

Take `COc1cc([S+](C)[O-])ccc1-c1cn2ccncc2n1` (stereo not drawn) [X, 2-(2-methoxy-4-methylsulphinylphenyl)imidazo[1,2-a]pyrazine, reference compound]: the ED30 worked out at 0.028 mg/kg, the ED50 amounted to 0.75 mg/kg, the “Selectivity ED50L.V. dP/dt / ED30D.B.P.” value stood at 26.8 and the “Tr (duration of inotropic response)” value turned out to be 5 min.
